Laboratory results published in patent US20240287080A1 (IDEAYA Biosciences Inc., priority 2021, published 2024).

Target: T1, Pol theta (1-899) (Homo sapiens, UniProt O75417)
T1 construct: Pol theta (1-899) (5 nM) in assay buffer
Assay: Pol theta ATPase activity, NADH oxidation-coupled enzymatic assay (ATPase NADH coupling: Standard Screening: hPolQ)
Format: biochemical
Conditions: Pol theta (1-899) 5 nM
Procedure: The ability of the compounds of Formula (I) or Table 1 to inhibit ATPase activity of Pol theta (1-899) was determined using the assay described below. Pol Theta ATPase activity was determined by measuring the rate of ATP turn over in a NADH oxidation-coupled enzymatic assay. 10-point dilution series of compounds were used in a 384 well format for the inhibition assays. Pol theta (1-899) (5 nM) in assay buffer (20 mM Tris HCl (pH 7.80), 80 mM KCl, 10 mM MgCl2, 1 mM DTT, 0.01% BSA, 0.01% Tween, 5% glycerol) was transferred to the test wells (20 μL), except the low control wells (20 μL of assay buffer was added to the low control wells). The plate was then incubated at room temperature for 15 min. An equal volume (20 μL) of 100 μM ATP, 300 nM […] (single-stranded DNA (ssDNA) containing 50 thymine bases), 300 μM NADH, 6 mM PEP, 10 U/mL lactate dehydrogenase and 20 U/mL pyruvate kinase in assay buffer was added to all the test wells. The plate was then centrifuged at 1000 rpm for 1 min. The reaction was monitored for 60 min by measuring absorbance (λ=340 nm) in a Tecan Spark multimode plate reader every minute. The high control (DMSO with enzyme) with low absorbance intensity represents no inhibition of ATPase reaction while the low control (DMSO with buffer) with high absorbance intensity represents full inhibition of ATPase activity. Slope of the reaction progress curves were used to calculate the rate of ATP hydrolysis. The rates were used to determine the percent inhibition using a four-parameter inhibition model to generate IC50, Hill slope and max inhibition.

[1] = NADH oxidation-coupled ATPase assay, compounds of Table 3

T1 sequence (O75417 1-899): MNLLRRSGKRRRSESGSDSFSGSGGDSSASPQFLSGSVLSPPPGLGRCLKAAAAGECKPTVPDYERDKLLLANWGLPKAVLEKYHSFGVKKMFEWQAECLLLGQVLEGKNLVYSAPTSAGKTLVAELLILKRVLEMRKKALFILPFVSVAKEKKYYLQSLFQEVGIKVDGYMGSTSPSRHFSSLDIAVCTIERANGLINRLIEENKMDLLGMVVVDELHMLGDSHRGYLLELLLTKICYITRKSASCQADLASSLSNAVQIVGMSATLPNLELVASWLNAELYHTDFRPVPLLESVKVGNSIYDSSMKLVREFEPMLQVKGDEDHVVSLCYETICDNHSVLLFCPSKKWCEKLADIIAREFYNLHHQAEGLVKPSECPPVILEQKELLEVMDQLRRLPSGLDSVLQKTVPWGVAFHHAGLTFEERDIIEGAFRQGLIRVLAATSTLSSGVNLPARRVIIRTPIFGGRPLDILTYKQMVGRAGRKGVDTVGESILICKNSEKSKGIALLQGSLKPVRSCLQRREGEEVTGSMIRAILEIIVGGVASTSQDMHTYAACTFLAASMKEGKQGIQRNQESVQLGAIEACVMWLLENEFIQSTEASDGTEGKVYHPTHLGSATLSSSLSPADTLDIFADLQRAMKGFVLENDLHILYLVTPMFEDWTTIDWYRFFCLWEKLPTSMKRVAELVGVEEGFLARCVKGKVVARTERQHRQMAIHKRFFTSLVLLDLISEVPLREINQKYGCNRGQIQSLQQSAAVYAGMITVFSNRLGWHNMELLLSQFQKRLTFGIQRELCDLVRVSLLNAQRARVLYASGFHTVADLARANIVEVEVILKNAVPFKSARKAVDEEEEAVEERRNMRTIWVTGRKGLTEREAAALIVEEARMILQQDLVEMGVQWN

Row | Structure (SMILES) | IC50 (Table 5, ATP, dT50 ssDNA) [nM] | also measured
1 | COc1cnc(Cl)cc1-c1cc(C)ncc1C(=O)Nc1nnc(OC2CC(C)(O)C2)s1 (mixture of isomers) [Example 176, 2′-chloro-N-(5-(3-hydroxy-3-methylcyclobutoxy)-1,3,4-thiadiazol-2-yl)-5′-methoxy-6-methyl-(4,4′-bipyridine)-3-carboxamide] | ≤ 200 | –
2 | COc1cnc(Cl)cc1-c1cc(C)ncc1C(=O)Nc1nnc(O[C@H]2CCO[C@H]2C)s1 (racemic) [Example 92, rac-2′-Chloro-5′-methoxy-6-methyl-N-(5-(((2R,3R)-2-methyltetrahydrofuran-3-yl)oxy)-1,3,4-thiadiazol-2-yl)-(4,4′-bipyridine)-3-carboxamide] | 200 to 500 | –
3 | COc1cnc(Cl)cc1-c1cc(C)ncc1C(=O)Nc1nnc(O[C@H]2CCO[C@@H]2C)s1 (racemic) [Example 93, rac-2′-Chloro-5′-methoxy-6-methyl-N-(5-(((2R,3S)-2-methyltetrahydrofuran-3-yl)oxy)-1,3,4-thiadiazol-2-yl)-(4,4′-bipyridine)-3-carboxamide] | ≤ 200 | –
4 | COc1cnc(Cl)cc1-c1cc(C)ncc1C(=O)Nc1nnc(O[C@H]2CC[C@H]2O)s1 (racemic) [Example 112, rac-2′-chloro-N-(5-((1R,2S)-2-hydroxycyclobutoxy)-1,3,4-thiadiazol-2-yl)-5′-methoxy-6-methyl-(4,4′-bipyridine)-3-carboxamide] | 200 to 500 | –
5 | COc1cnc(Cl)cc1-c1cc(C)ncc1C(=O)Nc1nnc(O[C@H]2CC[C@H](OC)C2)s1 (racemic) [Example 149, rac-2′-chloro-5′-methoxy-N-(5-(((1R,3R)-3-methoxycyclopentyl)oxy)-1,3,4-thiadiazol-2-yl)-6-methyl-(4,4′-bipyridine)-3-carboxamide] | ≤ 200 | –
6 | COc1cnc(Cl)cc1-c1cc(C)ncc1C(=O)Nc1nnc(O[C@H]2CC[C@@H](OC)C2)s1 (racemic) [Example 150, rac-2′-chloro-5′-methoxy-N-(5-(((1R,3S)-3-methoxycyclopentyl)oxy)-1,3,4-thiadiazol-2-yl)-6-methyl-(4,4′-bipyridine)-3-carboxamide] | ≤ 200 | –
7 | COc1cnc(Cl)c(F)c1-c1cc(C)ncc1C(=O)Nc1nnc(O[C@H]2CC[C@@H](O)C2)s1 (racemic) [Example 170, rac-2′-chloro-3′-fluoro-N-(5-(((1R,3S)-3-hydroxycyclopentyl)oxy)-1,3,4-thiadiazol-2-yl)-5′-methoxy-6-methyl-(4,4′-bipyridine)-3-carboxamide] | ≤ 200 | –
8 | COc1cnc(Cl)cc1-c1cc(C)ncc1C(=O)Nc1nnc(O[C@H]2CCC[C@@](C)(O)C2)s1 (racemic) [Example 177, rac-2′-chloro-N-(5-(((1R,3S)-3-hydroxy-3-methylcyclohexyl)oxy)-1,3,4-thiadiazol-2-yl)-5′-methoxy-6-methyl-(4,4′-bipyridine)-3-carboxamide] | 200 to 500 | –
9 | COc1cnc(Cl)cc1-c1cc(C)ncc1C(=O)Nc1nnc(O[C@H]2CCC[C@](C)(O)C2)s1 (racemic) [Example 178, rac-2′-chloro-N-(5-(((1R,3R)-3-hydroxy-3-methylcyclohexyl)oxy)-1,3,4-thiadiazol-2-yl)-5′-methoxy-6-methyl-(4,4′-bipyridine)-3-carboxamide] | ≤ 200 | –
10 | COc1cnc(Cl)cc1-c1cc(C)ncc1C(=O)Nc1nnc(O[C@H]2CC[C@@]23CCOC3)s1 (racemic) [Example 292, rac-N-(5-(((1S,4S)-6-oxaspiro[3.4]octan-1-yl)oxy)-1,3,4-thiadiazol-2-yl)-2′-chloro-5′-methoxy-6-methyl-[4,4′-bipyridine]-3-carboxamide] | – | IC50 [1]: ≤ 200 nM
11 | COc1cnc(Cl)cc1-c1cc(C)ncc1C(=O)Nc1nnc(O[C@@H]2CC[C@@]23CCOC3)s1 (racemic) [Example 295, rac-N-(5-(((1R,4S)-6-oxaspiro[3.4]octan-1-yl)oxy)-1,3,4-thiadiazol-2-yl)-2′-chloro-5′-methoxy-6-methyl-[4,4′-bipyridine]-3-carboxamide] | – | IC50 [1]: ≤ 200 nM
12 | COc1cnc(Cl)cc1-c1cc(C)ncc1C(=O)Nc1nnc(O[C@H]2CC[C@@H](O)CC2)s1 (single isomer, unassigned) [Example 26, 2′-chloro-N-(5-(((1s,4s)-4-hydroxycyclohexyl)oxy)-1,3,4-thiadiazol-2-yl)-5′-methoxy-6-methyl-[4,4′-bipyridine]-3-carboxamide] | – | IC50 (Table 4, ATP, dT50 ssDNA): ≤ 200 nM
13 | COc1cnc(Cl)cc1-c1cc(C)ncc1C(=O)Nc1nnc(O[C@H]2CC[C@H](O)CC2)s1 (single isomer, unassigned) [Example 27, 2′-chloro-N-(5-(((1r,4r)-4-hydroxycyclohexyl)oxy)-1,3,4-thiadiazol-2-yl)-5′-methoxy-6-methyl-[4,4′-bipyridine]-3-carboxamide] | – | IC50 (Table 4, ATP, dT50 ssDNA): ≤ 200 nM
14 | COc1cnc(Cl)cc1-c1cc(C)ncc1C(=O)Nc1nnc(O[C@H]2CC[C@@H](O)C2)s1 (single isomer, unassigned) [Example 58] | – | IC50 (Table 4, ATP, dT50 ssDNA): ≤ 200 nM
15 | COc1cnc(Cl)cc1-c1cc(C)ncc1C(=O)Nc1nnc(O[C@@H]2CC[C@H](O)C2)s1 (single isomer, unassigned) [Example 59] | – | IC50 (Table 4, ATP, dT50 ssDNA): ≤ 200 nM
16 | COc1nnc(NC(=O)c2cnc(C)cc2-c2cc([C@H](C)O)ncc2OC)s1 (single isomer, unassigned) [Example 68] | – | IC50 (Table 4, ATP, dT50 ssDNA): 1000 to 10000 nM

Row | Structure (SMILES) | IC50 (Table 5, ATP, dT50 ssDNA) [nM] | also measured
17 | COc1nnc(NC(=O)c2cnc(C)cc2-c2cc([C@@H](C)O)ncc2OC)s1 (single isomer, unassigned) [Example 69] | – | IC50 (Table 4, ATP, dT50 ssDNA): 1000 to 10000 nM
18 | COc1cnc(Cl)cc1-c1cc(C)ncc1C(=O)Nc1nnc(O[C@H]2CCO[C@H]2C)s1 (single isomer, unassigned) [Example 76, 2′-chloro-5′-methoxy-6-methyl-N-(5-(((2r,3r)-2-methyltetrahydrofuran-3-yl)oxy)-1,3,4-thiadiazol-2-yl)-(4,4′-bipyridine)-3-carboxamide] | – | IC50 (Table 4, ATP, dT50 ssDNA): ≤ 200 nM
19 | COc1cnc(Cl)cc1-c1cc(C)ncc1C(=O)Nc1nnc(O[C@H]2CCO[C@@H]2C)s1 (single isomer, unassigned) [Example 77, 2′-chloro-5′-methoxy-6-methyl-N-(5-(((2r,3s)-2-methyltetrahydrofuran-3-yl)oxy)-1,3,4-thiadiazol-2-yl)-(4,4′-bipyridine)-3-carboxamide] | – | IC50 (Table 4, ATP, dT50 ssDNA): ≤ 200 nM
20 | COc1cnc(Cl)cc1-c1cc(C)ncc1C(=O)Nc1nnc(O[C@@H]2CC[C@H]2O)s1 (single isomer, unassigned) [Example 114] | ≤ 200 | –
21 | COc1cnc(Cl)cc1-c1cc(C)ncc1C(=O)Nc1nnc(O[C@H]2CCO[C@@H]2C)s1 (single isomer, unassigned) [Example 115] | ≤ 200 | –
22 | COc1cnc(Cl)cc1-c1cc(C)ncc1C(=O)Nc1nnc(O[C@@H]2CCO[C@H]2C)s1 (single isomer, unassigned) [Example 116] | ≤ 200 | –
23 | COc1cnc(Cl)cc1-c1cc(C)ncc1C(=O)Nc1nnc(O[C@H]2COC3(CC3)C2)s1 (single isomer, unassigned) [Example 117] | ≤ 200 | –
24 | COc1cnc(Cl)cc1-c1cc(C)ncc1C(=O)Nc1nnc(O[C@@H]2CC[C@H]2O)s1 (single isomer, unassigned) [Example 118] | ≤ 200 | –
25 | COc1cnc(Cl)cc1-c1cc(C)ncc1C(=O)Nc1nnc(O[C@H]2CC[C@@H]2O)s1 (single isomer, unassigned) [Example 119] | ≤ 200 | –
26 | COc1cnc(Cl)cc1-c1cc(C)ncc1C(=O)Nc1nnc(O[C@H]2CC[C@@H](OC)CC2)s1 (single isomer, unassigned) [Example 124, 2′-chloro-5′-methoxy-N-(5-(((1s,4s)-4-methoxycyclohexyl)oxy)-1,3,4-thiadiazol-2-yl)-6-methyl-(4,4′-bipyridine)-3-carboxamide] | ≤ 200 | –
27 | COc1cnc(Cl)cc1-c1cc(C)ncc1C(=O)Nc1nnc(O[C@H]2CC[C@H](OC)CC2)s1 (single isomer, unassigned) [Example 125, 2′-chloro-5′-methoxy-N-(5-(((1r,4r)-4-methoxycyclohexyl)oxy)-1,3,4-thiadiazol-2-yl)-6-methyl-(4,4′-bipyridine)-3-carboxamide] | ≤ 200 | –
28 | COc1cnc(Cl)cc1-c1cc(C)ncc1C(=O)Nc1nnc(O[C@@H]2COCC2(F)F)s1 (single isomer, unassigned) [Example 127] | ≤ 200 | –
29 | COc1cnc(Cl)cc1-c1cc(C)ncc1C(=O)Nc1nnc(O[C@H]2COCC2(F)F)s1 (single isomer, unassigned) [Example 128] | ≤ 200 | –
30 | COc1cnc(Cl)cc1-c1cc(C)ncc1C(=O)Nc1nnc(O[C@@H]2COC(C)(C)C2)s1 (single isomer, unassigned) [Example 130] | ≤ 200 | –
31 | COc1cnc(Cl)cc1-c1cc(C)ncc1C(=O)Nc1nnc(O[C@H]2COC(C)(C)C2)s1 (single isomer, unassigned) [Example 131] | ≤ 200 | –
32 | COc1cnc(Cl)cc1-c1cc(C)ncc1C(=O)Nc1nnc(O[C@H]2C[C@@H](OC)C2)s1 (single isomer, unassigned) [Example 132, 2′-chloro-5′-methoxy-N-(5-((1s,3s)-3-methoxycyclobutoxy)-1,3,4-thiadiazol-2-yl)-6-methyl-(4,4′-bipyridine)-3-carboxamide] | ≤ 200 | –
